Residues, ends and D or L forms follow the SMILES beside them. No end group written: not given here. *: point of attachment. Stearoyl = CCCCCCCCCCCCCCCCCC(=O)*
Tests used:
[1] = tested on: influenza virus A/Puerto Rico/8/34 strain (H1N1); conditions: influenza virus A/Puerto Rico/8/34 strain
[2] = tested on: influenza virus A/Aichi/2/68 strain (H3N2); conditions: influenza virus A/Aichi/2/68 strain
hemagglutinin = hemagglutinin (Influenza A virus, UniProt P03437); conditions: read-out: binding constant between hemagglutinin and free sialyl lactose (K0); evaluation by NMR, reported; cited from earlier work
[3] = tested on: hemagglutinin (immobilized H3N2); experiment: Biacore binding of synthetic peptides to H3N2 immobilized on Sensor Chip CM5; set-up: species or system influenza virus type A A/Wuhan/359/95 (H3N2); conditions: for order of binding strength to hemagglutinin: Biacore; for relative value of resonance (amount of binding) with A-1 taken as 1: peptide concentration 200 μM
[4] = tested on: hemagglutinin (HA), ether extract of type A subtype H3 A/Wuhan/359/95 (H3N2); experiment: Phage ELISA, binding of peptide-presenting phages to immobilized hemagglutinin (H3N2); set-up: species or system influenza virus type A A/Wuhan/359/95 (H3N2)
[5] = target: hemagglutinin (HA), ether extract of type A subtype H1 A/PR/8/34 (H1N1) (Influenza A virus, UniProt P03452)
[6] = target: binding of hemagglutinin (H3) to GM3; experiment: ELISA inhibition of GM3-hemagglutinin interaction using GM3 cast membrane; set-up: species or system influenza virus
Protocol: Inhibition of the interaction between GM3 and hemagglutinin (HA) was evaluated by ELISA using the GM3 cast membrane (Kazuhiro Nagata and Hiroshi Handa, “Seibutsu Busshitsu Sogosayo no Real-time Kaiseki Jikkenho—BIACORE wo Chushin Ni (Real-time Analysis Experimental Procedures on Biological Substance Interaction—Focusing on BIOCORE), Springer-Verlag Inc., Tokyo, 1998)”). […] In addition, it has been reported from an evaluation by NMR that the binding constant between hemagglutinin and free sialyl lactose is in the order of mM (e.g. α (2, 3)-sialyllactose K0=3.2 mM). Therefore, the results presented in this Example were largely consistent with the inhibition constant of the peptides reported by Inoue. Moreover, the results presented in this Example are in the same order of magnitude as, or one order smaller than, the inhibition constant of A-1 or the binding constant obtained with sialyl lactose.

Sequence of hemagglutinin (HA), ether extract of type A subtype H1 A/PR/8/34 (H1N1) (P03452 18-565): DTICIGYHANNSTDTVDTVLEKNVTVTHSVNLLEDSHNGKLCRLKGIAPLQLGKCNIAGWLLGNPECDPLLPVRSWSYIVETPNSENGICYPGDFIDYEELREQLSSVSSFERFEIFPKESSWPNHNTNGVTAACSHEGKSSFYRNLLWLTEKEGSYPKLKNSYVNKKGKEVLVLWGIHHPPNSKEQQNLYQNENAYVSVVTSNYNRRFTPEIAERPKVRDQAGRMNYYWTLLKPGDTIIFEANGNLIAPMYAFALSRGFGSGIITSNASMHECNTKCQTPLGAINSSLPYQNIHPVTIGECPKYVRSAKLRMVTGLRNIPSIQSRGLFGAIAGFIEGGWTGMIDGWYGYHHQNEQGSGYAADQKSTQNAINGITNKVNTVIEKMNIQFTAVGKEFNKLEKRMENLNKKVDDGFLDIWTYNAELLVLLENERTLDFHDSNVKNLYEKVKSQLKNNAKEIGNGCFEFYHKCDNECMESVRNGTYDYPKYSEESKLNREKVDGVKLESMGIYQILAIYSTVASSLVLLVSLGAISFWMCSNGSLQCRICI

Molecule | order of binding strength to hemagglutinin [3] | relative value of resonance (amount of binding) with A-1 taken as 1 [3] | also measured
CCCCCCCCCCCCCCCCCC(=O)N[C@@H](C)C(=O)N[C@@H](CCCNC(=N)N)C(=O)N[C@@H](CC(C)C)C(=O)N1CCC[C@H]1C(=O)N[C@@H](CCCNC(=N)N)C(=O)N[C@H](C(=O)N[C@@H](CCSC)C(=O)N[C@H](C(=O)N[C@@H](Cc1c[nH]cn1)C(=O)N1CCC[C@H]1C(=O)N[C@@H](CCCCN)C(=O)N1CCC[C@H]1C(=O)N[C@@H](C)C(=O)N[C@@H](CCC(N)=O)C(=O)N1CCC[C@H]1C(N)=O)C(C)C)[C@@H](C)O [C18-s2, C18-ARLPRTMVHPKPAQP] (Stearoyl-ARLPRTMVHPKPAQP-NH2) | – | – | IC50 [1]: 10 µM; IC50 [2]: 8.2 µM
CC(=O)N[C@H]1[C@H]([C@H](O)[C@H](O)CO)O[C@@](O[C@H]2[C@@H](O)[C@@H](CO)O[C@@H](O[C@H]3[C@H](O)[C@@H](O)C(O)O[C@@H]3CO)[C@@H]2O)(C(=O)O)C[C@@H]1O (stereo partly drawn) [α (2, 3)-sialyllactose] | – | – | Kd (hemagglutinin): 3200 µM
AEGDDPAKAAFDSLQ-NH2 [pVIII, reference compound] | s-2>e-1>A-1>pVIII | – | –
ARLPPTMVRPNGPQP-NH2 [e-1] | s-2>e-1>A-1>pVIII | 1.2 fold | –
ARLPRTMVHPKPAQP-NH2 [s-2] | s-2>e-1>A-1>pVIII | 2.1 fold | binding activity to hemagglutinin relative to A-1 (A-1 taken as 1) [4]: about 3 fold; binding activity to hemagglutinin relative to A-1 (A-1 taken as 1) [5]: about 3 fold
ARLSPTMVHPNGAQP [A-1, ARLSPTMVHPNGAQP-NH2, reference compound] | s-2>e-1>A-1>pVIII | – | IC50 [6]: 1900 µM
